Measured values from US6610489B2, “Pharmacogenomics and identification of drug targets by reconstruction of signal transduction pathways based on sequences of accessible regions” (Sangamo BioSciences, Inc., priority 2000, dated 2003).

Legend:
[1] = system: p16 CpG island sequences associated with acetylated histone H3 in HCT15 cells; experiment: Chromatin immunoprecipitation with anti-acetylated histone H3 antibody, real-time quantitative PCR (Taqman); type: cell-based, human; settings: HCT15 cells treated with 2 μM 5-azacytidine during three-day growth, compared to untreated cells; VEGF gene region as control sequence
Excerpt: In this example, chromatin immunoprecipitation (ChIP) was used to enrich a population of DNA fragments comprising regulatory sequences for the p16 tumor suppressor gene, by virtue of their association with acetylated histone H3. A CpG island is located in the p16 gene (GenBank Accession No. AF022809), between about 30 nucleotide pairs upstream, and about 590 nucleotide pairs downstream of the transcriptional startsite identified by Hara et al. (1996) Mol. Cell. Biol. 16:859-867. One form of regulation of genes associated with CpG islands is through methylation of C residues within the CpG island. […]
Untreated and 5-azacytidine-treated HCT15 cells were analyzed by chromatin immunoprecipitation to test for a specific association of acetylated H3 with unmethylated (i.e., active) CpG island sequences. […] Then, in both portions, formaldehyde crosslinks were reversed, DNA was purified, and the purified DNA was analyzed by means of a real-time quantitative PCR assay, known colloquially as “Taqman®.” The DNA was analyzed for the relative proportion of two sequences: (1) a region adjacent to the CpG island located in the 5′-untranslated region of the p16 gene (see above), and (2) a portion of the VEGF gene corresponding to the region from 2324 to 2246 nucleotide pairs upstream of the transcription initiation site.

p16 gene = settings: HCT15 cells, in which the p16 CpG island is methylated and the p16 gene is inactive; cited from earlier work

Question: What does the source list for Nc1ncn([C@@H]2O[C@H](CO)[C@@H](O)[C@H]2O)c(=O)n1 [5-azacytidine]?
Answer: enrichment of p16 CpG island sequences associated with acetylated H3 [1]: approximately 10 fold; p16 transcription (p16 gene): activation of p16 transcription
